Test results taken from US20070039241A1, “Floatable granular substrate for culturing plant material” (GSF - Forschungszentrum fur Umwelt und Gesundheit, priority 2003, published 2007).

Tested on: barley seedlings
Test: Heavy metal uptake of barley seedlings on floating culture substrate or agar substrate (ICP-MS of leaves and roots)
Assay type: in vivo, Hordeum vulgare cv. Barke
Conditions: for Concentration of heavy metal ions in barley seedlings, Shoot, Agar: grown on agar; for Concentration of heavy metal ions in barley seedlings, Shoot, Agar / Concentration of heavy metal ions in barley seedlings, Root, Floatable Substrate / Concentration of heavy metal ions in barley seedlings, Shoot, Floatable Substrate: 6 day old plants; for Concentration of heavy metal ions in barley seedlings, Root, Floatable Substrate / Concentration of heavy metal ions in barley seedlings, Shoot, Floatable Substrate: grown on floatable substrate; for Factor by which concentration in the roots was increased compared to shoot tissue: seedlings grown on floatable substrate
Experimental: MS-basal Medium or Hoagland's medium was supplemented with heavy metals as follows: stock solutions of Hg Cl2 (0.1 M) or Cd(NO3)2•4H2O (0.1 M) were applied to the autoclaved medium when it had cooled to about 55° C. such that final heavy metal-ion concentrations of 10, 20, 30 and 40 μM were obtained.
Agar culturing substrate was prepared by adding 1.5 wt/vol % agar (Sigma) to Hoagland's or MS-basal medium. After heating to 100° C., respective amounts of heavy metal salts were added when the medium had cooled down to […]. Then the mixture was poured into Phytotray II™ culture vessels (Sigma) and left to cool for subsequent use.
Barley caryopses prepared and seeded onto a floatable substrate layer as in Example 1. Alternatively, the caryopses were directly placed on culturing agar as described above.
Seedlings were grown as described, and leaves and roots of 6 day old plants were harvested and weighed to determine the fresh weight. Samples were shock-frozen in liquid nitrogen and stored at −80° C.
Total mercury and cadmium content of leaves and roots was determined by electrothermal vaporization inductively coupled plasma-mass spectrometry (Michalke et al., 1997).

`[Cl][Hg][Cl]` [Hg^2+, Hg Cl2] was tested, and the “Concentration of heavy metal ions in barley seedlings, Shoot, Agar” value (“Concentration of heavy metal ions … Agar” for short) (added concentration 10 μM) was 62 µM, the “Concentration of heavy metal ions … Agar” value (added concentration 20 μM) was 171 µM and the “Concentration of heavy metal ions … Agar” value (added concentration 30 μM) was 254 µM. For the same molecule, the “Concentration of heavy metal ions … Agar” value (added concentration 40 μM) was 252 µM, the “Concentration of heavy metal ions in barley seedlings, Root, Floatable Substrate” value (from here on “Concentration … Root, Floatable Substrate”) (added concentration 10 μM) was 697 µM and the “Concentration of heavy metal ions in barley seedlings, Shoot, Floatable Substrate” value (“Concentration … Shoot, Floatable Substrate” below) (added concentration 10 μM) was 54 µM. The “Concentration … Root, Floatable Substrate” value (added concentration 20 μM) was 851 µM, the “Concentration … Shoot, Floatable Substrate” value (added concentration 20 μM) was 144 µM and the “Concentration … Root, Floatable Substrate” value (added concentration 30 μM) was 2060 µM. The “Concentration … Shoot, Floatable Substrate” value (added concentration 30 μM) was 239 µM, the “Concentration … Root, Floatable Substrate” value (added concentration 40 μM) was 2430 µM and the “Concentration … Shoot, Floatable Substrate” value (added concentration 40 μM) was 296 µM. The “Factor by which concentration in the roots was increased compared to shoot tissue” value was 10.

With `O.O.O.O.O=[N+]([O-])[O-].O=[N+]([O-])[O-].[Cd+2]` [Cd^2+, Cd(NO3)2•4H2O] the “Concentration of heavy metal ions … Agar” value (added concentration 10 μM) was 15 µM, the “Concentration of heavy metal ions … Agar” value (added concentration 20 μM) was 21 µM and the “Concentration of heavy metal ions … Agar” value (added concentration 30 μM) was 41 µM. For the same molecule, the “Concentration of heavy metal ions … Agar” value (added concentration 40 μM) was 53 µM, the “Concentration … Root, Floatable Substrate” value (added concentration 10 μM) was 479 µM and the “Concentration … Shoot, Floatable Substrate” value (added concentration 10 μM) was 4 µM. The “Concentration … Root, Floatable Substrate” value (added concentration 20 μM) was 1270 µM, the “Concentration … Shoot, Floatable Substrate” value (added concentration 20 μM) was 27 µM and the “Concentration … Root, Floatable Substrate” value (added concentration 30 μM) was 1450 µM. For the same molecule, the “Concentration … Shoot, Floatable Substrate” value (added concentration 30 μM) was 27 µM, the “Concentration … Root, Floatable Substrate” value (added concentration 40 μM) was 2880 µM and the “Concentration … Shoot, Floatable Substrate” value (added concentration 40 μM) was 59 µM. The “Factor by which concentration in the roots was increased compared to shoot tissue” value was 60.
